Data reported in ChEMBL document CHEMBL3507680, “University of Dundee, Gates Library screen for HepG2 cell viability”.

test: Human HepG2 cell viability assay in 384 well format; assay type: toxicity, cell-based; set-up: dose 125 nL, time 70.5 hour; concentration not given beside the values; conditions: HepG2 cells, read-out: Inhibition

SMILES | cytotoxicity at 70.5 h
c1cc(-c2cnccn2)cc(-c2ccn(CCN3CCCCC3)n2)c1 | -7.67%
CC(C)=CCN1CCN(C(=O)C2CCS(=O)(=O)C2)CC1 (configuration not stated) | 0.157%
Cc1nn(C)c2ncc(NC(=O)N(C)Cc3cnn(C)c3)cc12 | -14%
Cc1nn(C)c(C)c1CCn1cncc1-c1ccc2c(c1)CC(C)N2C (configuration not stated) | 4.43%
COc1cc(NCC(O)CN2CCCCCC2)ncn1 (configuration not stated) | -7.58%
Cc1nc(N(C)Cc2cccc(O)c2)nc2cc(S(C)(=O)=O)ccc12 | -7.8%
Cc1c(CN2CC[C@@H](N3CCC(O)CC3)[C@H](O)C2)[nH]c2ccc(Cl)cc12 | -0.941%
O=S(=O)(NCC1CCN(CCN2CCOCC2)C1)c1ccccc1F (configuration not stated) | 13.9%
CCCc1noc(C(C)N2CC(n3cccn3)C2)n1 (configuration not stated) | 6.9%
Cc1nn(C)c(C)c1CN(C)c1nc(C2CCCC2)nc2c1cnn2C | 8.68%
CN(C)CCN1C2(CCN(Cc3nccs3)C2)c2ccccc2S1(=O)=O (configuration not stated) | 24.4%
CCCN(Cc1ccc(C(=O)NCC2COCCO2)c(=O)[nH]1)C1CC1 (configuration not stated) | 50.6%
O=C1CC(c2ccccc2Br)c2sc(N3CCOCC3)nc2N1 (configuration not stated) | 2.49%
COc1cc(C(=O)N2CCCC(n3ccnc3)C2)cc2c1OCCO2 (configuration not stated) | -7.87%
O=c1cc(CN2CCCCC2c2cccc(F)c2)[nH]c2ncnn12 (configuration not stated) | -10.8%
O=C1NC2(CCN(C(=O)c3ccccc3)CC2)CC1c1cccnc1 (configuration not stated) | 2.71%
CCN(C)C[C@@H]1CN(Cc2cccc(Cl)c2)C[C@@H]1CO | -11.5%
CCS(=O)(=O)NC[C@]12COC[C@H]1CN(Cc1cccnc1)C2 | 7.34%
CC(C)(C)C(=O)N1CCC(c2noc(C3CCC(=O)N3)n2)CC1 (configuration not stated) | -6.7%
COCCN1CC(Nc2nc(C3CCCC3)nc3c2cnn3C)CC1=O (configuration not stated) | 18.4%
CN(C)CCC1CCN(c2cc(N3CCCC3CO)ncn2)CC1 (configuration not stated) | 11.7%
CN(C(=O)Cc1ccccc1Cl)C1CCN(c2ccccn2)CC1 | 2.75%
Cc1nc(-c2ccccc2C(=O)O)cc(C2CCN(C(C)C)C2)n1 (configuration not stated) | 10.7%

SMILES | cytotoxicity at 70.5 h
CCCn1cc(-c2ccnc(NC3CCCc4ccccc43)n2)c(C)n1 (configuration not stated) | 18.9%
COc1ccccc1CC1CCCN(CC(N)=O)C1 (configuration not stated) | -2.63%
CC(C)c1cnc(CN(C)C2CCN(CCCc3cnn(C)c3)C2)o1 (configuration not stated) | 20.9%
COCCC(=O)N1CCN(CC2CC2)c2ccccc21 | -3.57%
c1cc(CN2CCO[C@H]3[C@H](OCCN4CCCC4)CC[C@@H]32)ccn1 | -11.7%
CC1c2ncc(COCC3CCOCC3)n2CCN1C(=O)c1ccco1 (configuration not stated) | -10.5%
CS(=O)(=O)c1cc(Cl)cnc1C1CCN(C(=O)C2CCCO2)CC1 (configuration not stated) | -5.11%
CC1CCc2[nH]c(=O)c(C(=O)N3CCc4ccccc4C3)cc2C1 (configuration not stated) | 0.747%
COCCOCC(=O)NC(C#N)c1cccc(Cl)c1Cl (configuration not stated) | -6.94%
Cc1cc(NCc2cccc(C#N)c2)ccc1C(=O)N(C)C | -9.77%
Cc1cccc(N2CC[C@H]3CO[C@H](CN(C)Cc4ccco4)[C@H]3C2)n1 | -2.06%
O=S(=O)(CCNC1CCc2ncnn2C1)c1ccc(Cl)cc1 (configuration not stated) | -1.07%
Cc1ncc(CNC(=O)c2nn(C)c3c2CS(=O)(=O)CC3)s1 | -5.86%
CCNCCc1nc2cc(F)ccc2[nH]1 | -4.56%
Cc1nn(C)c(C)c1C1CCCN1C(=O)CCNS(C)(=O)=O (configuration not stated) | -5.69%
Cc1cc(C)n(C(=O)c2cn(C)nc2S(=O)(=O)N2CCSCC2)n1 | -7.57%
CC(C)c1nccn1CCC(=O)NCC(C)(O)c1ccco1 (configuration not stated) | -5.68%
COCC1CCN(c2cc(C3CN(C)CCO3)nc(C)n2)CC1 (configuration not stated) | 0.671%
CCN1CCCC(C)(C(=O)NCc2nncn2CCc2ccccc2)C1 (configuration not stated) | -8.53%
COc1c(F)cc(NC(=O)N2CCC(CSC)C2)cc1F (configuration not stated) | 16.5%
CC(C)(C)c1nc(CN(Cc2cccnc2)C2CN3CCC2CC3)no1 (configuration not stated) | -1.01%
Cc1cc(C)c(S(=O)(=O)Nc2c(C)noc2C)cc1C(=O)O | -2.9%
CC(NCc1ccc(OCC(N)=O)cc1)c1ccc(Cl)cc1Cl (configuration not stated) | -5.48%

SMILES | cytotoxicity at 70.5 h
COc1nn(C)c2c1CCCN(C(=O)c1ccsc1)C2 | -108%
Cc1ccc(C(=O)NS(=O)(=O)Cc2ccc(F)cc2)cc1S(C)(=O)=O | -3.12%
COCCN1CCC(CNC(=O)c2c[nH]c(=O)c(Cl)c2)CC1 | -10.5%
CN1CCN([C@H]2CCN(C(=O)c3nn(C)cc3Cl)C[C@H]2CCCO)CC1 | -10.4%
CN1CCC(Cc2noc(-c3cccc(OCC(N)=O)c3)n2)CC1 | 7.49%
NC(=O)c1ccc(S(=O)(=O)NCCc2ccccn2)cc1 | 1.11%
CCCc1nnc(N(C)CC2CCN(CC(C)C)CC2)o1 | -7.76%
CN(Cc1ccco1)C(=O)C1CSCN1C(=O)c1cccs1 (configuration not stated) | 12.5%
CCC(C)(O)CNc1ccc(S(=O)(=O)C(F)F)cc1 (configuration not stated) | -5.3%
CCc1n[nH]c(C2CN(C(=O)c3ccc4c(c3)COC4)CCO2)n1 (configuration not stated) | 18%
Fc1ccc(-c2nnc(CN3CCOC(Cn4cncn4)C3)o2)cc1 (configuration not stated) | -28.7%
CCNC(=O)C1CCN(Cc2ccc(C(=O)Nc3nnc(C)s3)cc2)C1 (configuration not stated) | 26.3%
COC(=O)c1ccc(N2CCN(C(=O)c3ccco3)C(C)C2)cc1 (configuration not stated) | -3.57%
Cc1nccn1-c1ccc(NC(=O)C2CCCN2Cc2ccoc2)cc1 (configuration not stated) | -6.93%
Cn1nc(C2CC2)cc1C(=O)N1CCC(c2nnsc2S(C)(=O)=O)CC1 | -4.78%
Cc1ncc(CN2CCCC(c3cc(C(F)(F)F)[nH]n3)C2)s1 (configuration not stated) | -1.49%
CS(=O)(=O)N1CCC2(CCCN(Cc3ccccn3)C2)CC1 | 10.3%
CC(C)(C)NC(=O)C1CSCN1S(=O)(=O)c1ccc(F)cc1 (configuration not stated) | -1.49%
NC(=O)c1ccc(C2CCCN2C(=O)CCn2nnc3ccccc32)s1 (configuration not stated) | -4.98%
Cc1cc(C(=O)NCC2Cn3nnc(C)c3CO2)no1 (configuration not stated) | -7.19%
CCCC(=O)N1CCC(c2nc(O)c3c(n2)CCN(C2CCCC2)C3)C1 (configuration not stated) | -0.72%
CN(Cc1cn(-c2ccccc2)nn1)C1CCCN(c2cccnn2)C1 (configuration not stated) | -3.67%
CC(C)N(C)C(=O)C1CCN(Cc2cc3c(cc2O)CCC3)CC1 | -5.17%

SMILES | cytotoxicity at 70.5 h
Cc1cc(CC(C)NC(=O)Cc2cc(F)ccc2C)[nH]n1 (configuration not stated) | 3.68%
CS(=O)(=O)CCC(=O)N(CCc1cccc(F)c1)C1CC1 | -11.4%
O=C(NCC1=CCCCC1)C(c1cccnc1)N1CCCC1 (configuration not stated) | 31.3%
O=C1COc2cc(C(=O)NCc3ccc(Cl)s3)ccc2N1 | -2.5%
Cc1cnc(NC(=O)c2csc(NCC(C)C)n2)s1 | 9.3%
CCc1cc(N2CCC(NCCSc3nnnn3C)CC2)nc(C)n1 | -0.17%
CCS(=O)(=O)N1CCN(C(=O)C(C)C)CC2(CC(=O)N(C)C2)C1 (configuration not stated) | -5.47%
CCCN(Cc1nc(-c2ccc(F)c(OC)c2)oc1C)CC1CCCO1 (configuration not stated) | -5.99%
Cc1ccc(CN2CCOC3(COCCN(C(C)C)C3)C2)s1 (configuration not stated) | 18.3%
CCN(c1ccc(C(=O)NCCCN2CCCCC2)cc1)S(=O)(=O)CC | -26.7%
O=C(c1c[nH]nn1)N1CCCC1C1CCCCC1 (configuration not stated) | -8.52%
COc1ccc(CN2C[C@H]3CN(C(=O)c4ccno4)CCN3C2=O)cc1 | -7.88%
Cc1nc(C)c(C(=O)N2CCc3nnc(C4CCCN4C)n3CC2)s1 (configuration not stated) | -3.4%
COc1ccc(NC(=O)C(C)n2cncn2)cn1 (configuration not stated) | -2.08%
COc1cc(N2CCO[C@H]3[C@@H](Oc4cccnc4)CC[C@@H]32)ncn1 | 26.1%
COc1ccc2c(ccn2CCC(=O)NCCCC(=O)O)c1 | -10.4%
c1cnc(N2C[C@H]3CCN(c4cccnc4)C[C@H]3C2)nc1 | -6.6%
CC(CN1CCOCC1)OC(=O)c1ccccc1Cl (configuration not stated) | -19.2%
O=C(NCCN1CCOCC1)N(CCCO)C1CCCc2ccccc21 (configuration not stated) | -2.32%
CCNc1cc2c(nn1)CCN(C(=O)CC1CCCCC1)C2 | -4.16%
O=C(C1COCCO1)N1CCN(CC(F)(F)F)c2ccccc21 (configuration not stated) | -1.12%
c1ccc(OCC2CC2)c(CNC2CCc3ncnn3C2)c1 (configuration not stated) | -7.19%
Cc1ccc([C@@H]2CN(S(=O)(=O)c3ccccc3)C[C@H]2N(C)C)cc1 | -9.61%

SMILES | cytotoxicity at 70.5 h
COC(=O)c1oc(CNC(C)(C)c2ccc3c(c2)OCCO3)cc1C | 20.9%
CN(C(=O)c1cccnc1OCC(F)F)c1ccc2c(c1)CCO2 | -9.98%
CC(=O)NC[C@]1(O)CCN(C(=O)c2ccc3c(c2)OCO3)C[C@H]1O | -4.98%
CCCN1C(=O)CC(N2CCN(c3ccc(F)cc3)CC2)C1=O (configuration not stated) | 7.23%
CNC(=O)CSc1nc2c(cnn2Cc2ccc(F)cc2)c(=O)[nH]1 | 13.5%
CC(C)N(C)Cc1cn2c(n1)CN(C(=O)Cc1ccsc1)CC2 | 0.0105%
Cc1nc(C)c(S(=O)(=O)NC(=O)c2ccoc2)s1 | -13%
CN(CC1Cc2ccccc2CN1C)C(=O)Cc1cccs1 (configuration not stated) | -6.46%
Cc1nn(C)c(Cl)c1S(=O)(=O)N(C)c1ccc(Cl)cn1 | 0.786%
CC(C)OCCC(=O)Nc1cc(C(=O)N(C)C(C)C)ccc1Cl | 4.24%
CN(Cc1noc2c1CCCC2)C(=O)CN1C(=O)COc2ccccc21 | -6.93%
Cc1nnc([C@@H]2CCO[C@@H]3CCN(C(=O)Cc4ccccn4)C[C@@H]32)o1 | -0.42%
CC(C)c1cc(CNC(=O)N2CCC(Cc3cnn(C)c3)C2)on1 (configuration not stated) | -11.4%
COC(=O)c1cccc(C(=O)NCc2ccc(C)o2)n1 | -18.5%
CN1C(=O)[C@H](OC(N)=O)[C@@H](C(=O)Nc2ccccc2)C12CCNCC2 | -10.7%
Cc1n[nH]cc1CNc1ccc2c(c1)N(C(=O)OC(C)(C)C)CCC2 | -5.44%
CCCNC(=O)CN1CCOC(CC)C1 (configuration not stated) | -15.7%
COCC(=O)N1CCCC1c1csc(Nc2cnccn2)n1 (configuration not stated) | -10.2%
C=C(Cl)CN(C)C1CCN(CCc2ccccn2)CC1 | -6.31%
CC(C)c1ccc(/C=C/CC(=O)NC2CCN(C(N)=O)C2)cc1 (configuration not stated) | 9%
